According to US6120997A, “Nucleic acid binders having an hydroxyamine motif” (The Scripps Research Institute, priority 1998, dated 2000):

Key:
[1] = NMR dilution experiments with chloride counterion in DMSO-d6; format: binding
Method: (§1) [a] NMR dilution experiments with the preformed 1:1 salt complexes were performed in DMSO-d6 at […]; [b] calculated maximum shift at full complexation in ppm.
(§2) In order to determine binding constants we prepared defined 1:1 salt complexes and measured their dissociation upon stepwise dilution in [D6 ]DMSO by following the shifts of NH and OH resonances. The chemical shift values of the totally uncomplexed state (o) and the fully complexed state (n) and the stability constant Ka were subsequently determined by curve fitting. […] In all cases, data could be fitted to a 1:1 binding isotherm. […] This order mirrors the order of binding affinities and is consistent with the interpretation that differential involvement of the hydroxyl group in hydrogen bonding provides for the energetic differences in complexation.

[2] = NMR dilution experiments of 1:1 salt complexes in DMSO-d6 (phosphodiester recognition); format: binding
Method: as §1, §2

[3] = system: bacterial protein synthesis; details: cited from earlier work
AS-wt = assay: SPR binding of aminoglycosides to decoding region A-site model AS-wt; parameters: species or system E. coli
Method: The RNA binding properties of 100-800 were analyzed using a surface plasmon resonance based assay that was recently developed in these laboratories. This assay allows the determination of both affinity and specificity of small molecule-RNA interactions. For the analysis, the compounds were injected over a matrix containing RNA that was immobilized through a biotin tag and the equilibrium binding values were recorded at various concentrations.
Non-linear curve fitting was then used to determine the values of the dissociation constants (KD). The specificity of binding, i.e. the ability to discriminate between different RNA sequences was evaluated by comparing the binding to the target sequence (AS-wt) and the negative control (AS-U1495A). The ratio of KD(AS-U1495A) to KD(AS-wt) was taken to be a representation of the specificity of the binding event.
For the quantitative measurement of aminoglycoside binding to these sequences, we utilized our recently developed SPR-based assay. Biotinylated derivatives of all sequences were prepared by in vitro transcription in the presence of guanosine 5'-monophosphorothioate followed by alkylation with a biotin iodoacetamide derivative. The RNA conjugates were then immobilized onto streptavidin coated SPR-sensorchips for analysis.
In the same manner as illustrated for paromomycin, a panel of aminoglycosides was screened and the results are compiled in the table of FIGS. 46 and 47. In addition to the naturally occuring aminoglycoside antibiotics, some of the compounds in FIG. 46 are synthetically derived, unnatural aminoglycosides. The number of independent determinations for each dissociation constant ranged from 1-3. […] All data were recorded under near physiological salt conditions (HBS-buffer: 150 mM NaCl, 10 mM HEPES, pH7.4, 3.4 mM EDTA) unless noted otherwise. Data points were taken at concentrations ranging from […]. Below this concentration range, surface transport limitations prevent the attainment of equilibrium.
Plasmon resonance and antimicrobial testing for Example 4. Synthesis of the biotinylated RNA and surface plasmon resonance detected binding experiments were performed as described vida supra. Solution conditions: 150 mM NaCl, 10 mM HEPES (pH 7.4), 3.4 mM EDTA. KD determination from the binding curves.
The fitting routine of the program kaleidagraph was used for all calculations. The starting values for a and b were set to 1 and 0 respectively. The number of KD values used in the fitting was adjusted depending on the observed range of equivalents bound but generally varied from 3 to 4.
General Procedures for SPR Binding Studies done in Example 5. Samples were prepared by serial dilutions from stock solutions in RNase free microfuge tubes (Ambion) and were centrifuged at 14000 rpm for degassing. Unless otherwise noted, all binding studies were carried out using HBS buffer (Pharmacia Biosensor AB) which was used as obtained. All procedures for binding studies were automated as methods using repetitive cycles of sample injection and regeneration. Typically, buffer was injected in the first two cycles to establish a stable baseline value. Samples were injected at a flowrate of […] using either the KINJECT command. All aminoglycoside samples were injected from autoclaved 7 mm plastic vials that were capped with pierceable plastic crimp caps. To minimize carry over, samples were injected in order of increasing concentration. The running buffer was identical to the injection buffer. Expected values for the equilibrium response of one equivalent of analyte were calculated from the relative molecular weight of the analyte and the immobilized RNA ligand in each flowcells and adjusted with a correction factor of 0.76 which arises from the different molar refractive indices of RNA and the analyte. […]

[4] = NMR binding study with dimethylphosphate in water; details: concentration ranges accessible by NMR
Text: (§3) To investigate whether 1,3-hydroxyamine substructures may be involved in binding in aqueous solution, we turned our attention to neamine (12; FIG. 4), a pseudodisaccharide substructure commonly found in a wide range of aminoglycoside antibiotics. […] These weak forces may, however, be enhanced by increasing the charge of the interacting species. In fact, many recognition events involving nucleic acids--including those by aminoglycosides--are likely to have a strong contribution from their polyionic character. We therefore turned our attention to sulfate, as it is a tetrahedral oxyanion similar to phosphate and its double negative charge mimics the effect of a polyanion. Furthermore, it has a defined ionization state. Since the spectra of aminoglycosides are highly dependent on pH, and even minor pH changes can outweigh any small complexation induced shifts, we performed binding studies at low pH, where neamine is fully protonated. […] Analysis of ^13 C-NMR spectra provided a clearer picture (FIG. 4). […] Thus, the selectivity found in aqueous solution is in full agreement with the order of binding affinities determined in the model compounds.

[5] = system: Escherichia coli (ATCC 25922); assay: minimum inhibitory concentration, broth dilution technique; format: cell-based; details: E. coli, liquid culture
Text: We reasoned that this modification would provide the cleanest test for probing the ionic contribution, since hydrogen bond donor abilities, electronegativity and steric demand are similar for both functional groups. In order to learn how well the model system correlates with in vivo activity, we checked the new compounds for antibacterial activity against three bacterial strains using the disc method (Kirby-Bauer technique). The minimum inhibitory concentrations (MICs) of the compounds were then determined using the broth dilution technique. For antibiotic testing protocols, see: (a) Disk testing protocols: Phillips, I.; Williams, D., in Laboratory Methods in Antimicrobial Chemotherapy, Garrod, L. (ed.) Churchill Livingstone Press: Edinburgh, 1978, pp. 3-30. (b) MIC determination: Waterworth, P. M., in Laboratory Methods in Antimicrobial Chemotherapy, Garrod, L. (ed.) Churchill Livingstone Press: Edinburgh, 1978, pp. 31-40; Barry, A. L. The Antimicrobic Susceptibility Test: Principles and Practice, Lea and Febiger: Philadelphia (1976). (c) Standards: Lorian, V., Antibiotics in Laboratory Medicine (2nd. ed.), Williams and Wilkins: Baltimore, 1986.
FIG. 39A gives the zone diameters measured for the three bacterial strains. The zone diameters measured for the strains with known antibiotics are well within the accepted limits. […] It is worth noting that some testing protocols recommend overnight growth of the cultures, rather than the minimum time required to obtain good growth of the control. MIC values were tested for several of the control antibiotics using overnight growth, and the MIC values observed were 2-4× greater than those observed for 4-6 hour growth.
Minimal Inhibitory Concentration (MIC) testing. E. coli ATCC 25922 was grown in Mueller-Hinton broth (cation-adjusted, BBL Microbiology Systems) to an optical density of approx. 0.5 (absorbance read at 600 nm), then diluted to an OD600 of 0.1. Samples of antibiotic were prepared in Mueller-Hinton broth, typically a series of 2-fold dilutions from […]. […] The absorbance of each sample was read (1=600 nm), and MIC was considered to be the lowest antibiotic concentration at which the absorbance was less than 1% of the no-antibiotic control.

[6] = 13C-NMR titration of neamine with sodium sulfate in water; format: binding; details: pH 3.5
Text: FIGS. 4A-4D illustrate the titration of neamine (12) with sodium sulfate at pH 3.5: (A) Titration curve for C1'. (B) Job plot; x=% complex formation. (C) Structure of neamine indicating the sites of maximum observed shift. (D) Maximum observed shift.
as §3

[7] = target: Rev27 (synthetic Rev34-50 RNA-binding peptide with flanking Ala and N-terminal Cys) (Human immunodeficiency virus 1) (UniProt P04618); assay: SPR; details: pH 7.4, 10 mM HEPES, 150 mM NaCl, 150 mM Na2SO4, 3.4 mM EDTA, 5 mM DTT, 10 C; 1:1; FIG. 7 legend gives 200 nM; Kd <10 nM at 5 C in 300 mM NaCl without sulfate
UniProt P04618, sequence (P04618 whole entry): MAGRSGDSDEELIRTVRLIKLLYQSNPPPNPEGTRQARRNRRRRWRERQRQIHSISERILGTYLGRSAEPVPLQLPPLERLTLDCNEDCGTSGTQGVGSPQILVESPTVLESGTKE

CO[C@H]1O[C@H](CNCc2ccccc2)[C@@H](O)[C@H](OCc2ccccc2)[C@H]1OCc1ccccc1 [Compound 3]
chloride binding (in words) [1]: lower chloride binding compared to 2, 4 and 5
selectivity for dimethylphosphate over chloride [2]: 7 fold

NC[C@H]1O[C@H](O[C@H]2[C@H](O)[C@@H](O)[C@H](N)C[C@@H]2N)[C@H](N)[C@@H](O)[C@@H]1O [Neamine]
effect on bacterial protein synthesis (in words) [3]: induces miscoding during translation
Kd (AS-wt; 150 mM NaCl, 10 mM HEPES (pH 7.4), 3.4 mM EDTA, read-out: dissociation constant, AS-wt): 7.8 µM
specificity for AS-wt over negative controls (in words) (AS-wt; Example 5, HBS-buffer): moderate specificity for AS-wt over AS-U1495A
specificity for AS-wt relative to AS-U1495A (AS-wt; KD(AS-U1495A)/KD(AS-wt)): approximately 4 fold
binding to dimethylphosphate in water (in words) [4]: no detectable binding
antibacterial activity / MIC compared with neomycin B (in words) [5]: inferior anti microbial activity
binding stoichiometry with sulfate (method of Job) [6]: 1:1 complex

wt-RRE-II
Kd [7]: 0.215 µM
